What all share (assay type): in vivo
For assay [1], the system named is SCPJU Scirpus juncoides. The experiment in a line: Herbicidal action on SCPJU, visual scoring on a percentage scale vs untreated control. The text has this: (§1) Seeds or root segments of monocotyledonous and dicotyledonous harmful plants are placed in sandy loam in pots and covered with soil. In the case of spray application, the compositions formulated as concentrated aqueous solutions, wettable powders or emulsion concentrates, are then applied to the surface of the covering soil as aqueous solution, suspension or emulsion, respectively, at an application rate of 600 to 800 l of water per ha (converted) in a variety of dosages. Immediately to a few days after the application, the test containers are flooded with water up to a depth of 30 mm above the soil surface. In the case of submerged application, in contrast, the soil in the closed test container is already covered with paddy water up to a depth of 30 mm at the time of application. Here, the formulated active ingredients are added directly to the paddy water, for example in the form of granules. After the treatment, the pots are placed in a greenhouse and kept under good growth conditions for the weeds. Visual scoring of the plant damage or the adverse effect on the emergence is carried out after the test plants have emerged after an experimental period of 3 to 4 weeks in comparison with untreated controls. […] Frequently, effects of the combinations according to the invention are observed which exceed the formal total of the effects when the herbicides are applied individually. When using suitable low dosages, the values observed in the experiments show an effect of the combinations which exceed the expected values calculated using Colby's formula.
(§2) The herbicidal efficacy of the active ingredients or active ingredient mixtures was scored visually by comparing the treated variants with untreated control variants. The damage and development of all aerial plant parts was recorded. Scoring was done on a percentage scale (100% action=all plants dead; 50% action=50% of the plants and green plant parts dead; 0% action=no discernible action=like untreated control plot).
(§3) Seeds or root segments of monocotyledonous and dicotyledonous weeds are placed in sandy loam in pots, covered with soil and grown in the greenhouse under good growth conditions (temperature, atmospheric humidity, water supply). Approximately three weeks after planting, the experimental plants are treated with the compositions according to the invention. In the case of spray application, the compositions according to the invention, which are formulated as wettable powders or emulsion concentrates, are sprayed onto the green plant parts in various dosages with an application rate of 600 to 800 l of water per ha (converted). Immediately to a few days after the application, the test containers are flooded with water up to a depth of 30 mm above the soil surface. In the case of submerged application, in contrast, the soil in the closed test container is already covered with paddy water up to a depth of 30 mm at the time of application. Here, the formulated active ingredients are added directly to the paddy water. After the experimental plants have remained in the greenhouse under optimal growth conditions for a further 3 to 4 weeks, the effect of the preparations is scored visually in comparison with untreated controls. The compositions according to the invention also have an outstanding herbicidal action against a broad spectrum of economically important grass weeds and broad-leaved weeds when applied post-emergence. Frequently, effects of the combinations according to the invention are observed which exceed the formal total of the effects when the herbicides are applied individually. When using suitable low dosages, the values observed in the experiments show an effect of the combinations which exceed the expected values calculated using Colby's formula.
Crop plants were grown in the open on plots under natural field conditions, seeds or root segments of typical harmful plants having been planted and the natural weed flora being exploited. […]

Assay [2] concerns SAGPY Sagittaria pygmaea. Put plainly: Herbicidal action on SAGPY, visual scoring on a percentage scale vs untreated control. The text has this:
(§4) Seeds or root segments of monocotyledonous and dicotyledonous harmful plants are placed in sandy loam in pots and covered with soil. In the case of spray application, the compositions formulated as concentrated aqueous solutions, wettable powders or emulsion concentrates, are then applied to the surface of the covering soil as aqueous solution, suspension or emulsion, respectively, at an application rate of 600 to 800 l of water per ha (converted) in a variety of dosages. Immediately to a few days after the application, the test containers are flooded with water up to a depth of 30 mm above the soil surface. In the case of submerged application, in contrast, the soil in the closed test container is already covered with paddy water up to a depth of 30 mm at the time of application. Here, the formulated active ingredients are added directly to the paddy water, for example in the form of granules. After the treatment, the pots are placed in a greenhouse and kept under good growth conditions for the weeds. […] When using suitable low dosages, the values observed in the experiments show an effect of the combinations which exceed the expected values calculated using Colby's formula.
(§5) The herbicidal efficacy of the active ingredients or active ingredient mixtures was scored visually by comparing the treated variants with untreated control variants. The damage and development of all aerial plant parts was recorded. […]
Seeds or root segments of monocotyledonous and dicotyledonous weeds are placed in sandy loam in pots, covered with soil and grown in the greenhouse under good growth conditions (temperature, atmospheric humidity, water supply). […] After the experimental plants have remained in the greenhouse under optimal growth conditions for a further 3 to 4 weeks, the effect of the preparations is scored visually in comparison with untreated controls. […] When using suitable low dosages, the values observed in the experiments show an effect of the combinations which exceed the expected values calculated using Colby's formula. […]

Assay [3] concerns SEBEX Sesbania exaltata. Put plainly: Herbicidal action on SEBEX, visual scoring on a percentage scale vs untreated control.
Excerpt: as §1, §2
as §3, with “The compositions according to the invention also have an outstanding herbicidal action against a broad spectrum of economically important grass weeds and broad-leaved weeds when applied post-emergence. Frequently, effects of the combinations according to the invention are observed which exceed the formal total of the effects when the herbicides are applied individually.” left out, “formula. […]” for “formula.”

The test system of assay [4] is CYPSE. The experiment in a line: Herbicidal action on CYPSE, visual scoring on a percentage scale vs untreated control.
Assay [5] has as its system MOOVA. Put plainly: Herbicidal action on MOOVA, visual scoring on a percentage scale vs untreated control.
Excerpt: as §4, with “granules.” for “granules. After the treatment, the pots are placed in a greenhouse and kept under good growth conditions for the weeds.”
as §5

Assay [6] concerns PHBPU. The experiment in a line: Herbicidal action on PHBPU, visual scoring on a percentage scale vs untreated control.
Excerpt: as §1, §2
as §3, with “The compositions according to the invention also have an outstanding herbicidal action against a broad spectrum of economically important grass weeds and broad-leaved weeds when applied post-emergence. Frequently, effects of the combinations according to the invention are observed which exceed the formal total of the effects when the herbicides are applied individually.” left out, “formula. […]” for “formula.”

For assay [7], the system named is CHEAL. The experiment in a line: Herbicidal action on CHEAL, visual scoring on a percentage scale vs untreated control.
Excerpt: as §4, with “granules.” for “granules. After the treatment, the pots are placed in a greenhouse and kept under good growth conditions for the weeds.”
as §5

The subject of assay [8] is ECHOR. Put plainly: Herbicidal action on ECHOR, visual scoring on a percentage scale vs untreated control. Particulars: Example B.XII, dosage 25 g ai/ha.
Excerpt: as §4, with “granules.” for “granules. After the treatment, the pots are placed in a greenhouse and kept under good growth conditions for the weeds.”
as §5

For assay [9], the system named is ECHCG. Put plainly: Herbicidal action on ECHCG, visual scoring on a percentage scale vs untreated control.
Excerpt: as §4, with “granules.” for “granules. After the treatment, the pots are placed in a greenhouse and kept under good growth conditions for the weeds.”
as §5

[10] abbreviates: Example B.IX, dosage 187 g ai/ha.
The mark [11] stands for this setting: Example B.X, dosage 1.8 g ai/ha.
The mark [12] stands for this setting: Example B.XIII, dosage 22 g ai/ha.
[13] abbreviates: Example B.IV, dosage 20 g ai/ha.
The mark [14] stands for this setting: Example B.XV, dosage 4.3 g ai/ha.

Turning to `CCN(CC)C(=O)SCc1ccc(Cl)cc1` [Compound B1.2, thiobencarb], the “found (herbicidal action)” value is recorded as 20% in assay [1] (setting [10]) and 0% in [2] (setting [10]).
Consider `COc1cc(OC)nc(NC(=O)NS(=O)(=O)Cc2ccccc2C(=O)O)n1` [Compound B2.1, bensulfuron], for which the “found (herbicidal action)” value in [3] (Example B.I, dosage 20 g ai/ha) came out at 45%; in [4] (Example B.I, dosage 10 g ai/ha), 68%.
Turning to `COc1cc(OC)nc(Oc2cccc(Oc3nc(OC)cc(OC)n3)c2C(=O)O)n1` [Compound B2.2, bispyribac-sodium], the “found (herbicidal action)” value in assay [5] (setting [11]) and in assay [1] (setting [11]) was 0% each time.
As to `COC(=O)c1c(Cl)nn(C)c1S(=O)(=O)NC(=O)Nc1nc(OC)cc(OC)n1` [Compound B2.5, halosulfuron-methyl], the “found (herbicidal action)” value in [1] (Example B.XI, dosage 15 g ai/ha) is listed as 0%; in [2] (Example B.XI, dosage 7.5 g ai/ha), 0%.
In the case of `CCc1cnc(C2=NC(C)(C(C)C)C(=O)N2)c(C(=O)O)c1` (stereo not shown) [Compound B2.9, imazethapyr], the “found (herbicidal action)” value amounted to 5% in assay [6] (Example B.II, dosage 5 g ai/ha) and 5% in assay [7] (Example B.II, dosage 10 g ai/ha).
As to `COc1cc(OC)n2nc(S(=O)(=O)Nc3c(Cl)ccc(C)c3Cl)nc2n1` [Compound B2.13, metosulam], the “found (herbicidal action)” value in assay [6] (B.III, dosage 2.5 g ai/ha) worked out at 85%; in [3] (B.III, dosage 2.5 g ai/ha) it was 30%.
As for `CC1(C)CON(Cc2ccccc2Cl)C1=O` [Compound B3.1, clomazone], the “found (herbicidal action)” value turned out to be 0% in assay [4] (Example B.XII, dosage 50 g ai/ha) and 30% in assay [8].
As for `CCCCOC(=O)[C@@H](C)Oc1ccc(Oc2ccc(C#N)cc2F)cc1` [Compound B4.1, cyhalofop-butyl], the “found (herbicidal action)” value in [1] (setting [12]) and in [4] (setting [12]) was 0% each time.
`CCOC(=O)C(C)Oc1ccc(Oc2nc3ccc(Cl)cc3o2)cc1` (stereo not shown) [Compound B4.2, fenoxaprop-ethyl]: the “found (herbicidal action)” value in assay [6] (setting [13]) and in assay [3] (setting [13]) was 0% in each case.
Consider `CN(C(=O)COc1nc2ccccc2s1)c1ccccc1` [Compound B5.1, mefenacet], for which the “found (herbicidal action)” value in assay [1] (Example B.XIV, dosage 125 g ai/ha) is listed as 0%; in [2] (Example B.XIV, dosage 63 g ai/ha), 0%.
With `CC1=C(c2ccccc2)C(=O)N(C(C)(C)c2cc(Cl)cc(Cl)c2)CO1` [Compound B5.2, oxaziclomefone], the “found (herbicidal action)” value in assay [1] (setting [14]) and in assay [4] (setting [14]) was 0% throughout.
On to `CCC(CC)Nc1c([N+](=O)[O-])cc(C)c(C)c1[N+](=O)[O-]` [Compound B7.1, pendimethalin], for which the “found (herbicidal action)” value in assay [6] (Example B.V, dosage 100 g ai/ha) came to 75%; in [9] (Example B.V, dosage 200 g ai/ha), 78%.
In the case of `CCC(=O)Nc1ccc(Cl)c(Cl)c1` [Compound B8.1, propanil], the “found (herbicidal action)” value came out at 0% in assay [5] (Example B.XVI, dosage 187 g ai/ha) and 0% in assay [1] (Example B.XVI, dosage 375 g ai/ha).
Turning to `O=C(O)c1c(Cl)ccc2cc(Cl)cnc12` [Compound B9.1, quinclorac], the “found (herbicidal action)” value was found to be 78% in assay [6] (Example B.VI, dosage 10 g ai/ha) and 0% in [3] (Example B.VI, dosage 5 g ai/ha).
Regarding `CP(=O)(O)CCC(N)C(=O)O` (stereo not shown) [Compound B10.1, glufosinate], the “found (herbicidal action)” value is on record as 5% in [3] (Example B.VII, dosage 100 g ai/ha) and 0% in [9] (Example B.VII, dosage 50 g ai/ha).
Take `O=C(O)CNCP(=O)(O)O` [Compound B11.1, glyphosate]: in assay [7] (Example B.VIII, dosage 100 g ai/ha), the “found (herbicidal action)” value turned out to be 0%.
